{"source": "ChEMBL document CHEMBL1128775", "about": "“Specific affinity labeling of opioid receptors in rat brain by S-activated sulfhydryldihydromorphine analogs” (Bioorg Med Chem Lett, 1995)", "type_in_all_cases": "tissue-based", "key": {"[1]": {"molecular_target": "T1, Delta-type opioid receptor (Rattus norvegicus, UniProt P33533)", "T1 sequence (P33533 whole entry)": "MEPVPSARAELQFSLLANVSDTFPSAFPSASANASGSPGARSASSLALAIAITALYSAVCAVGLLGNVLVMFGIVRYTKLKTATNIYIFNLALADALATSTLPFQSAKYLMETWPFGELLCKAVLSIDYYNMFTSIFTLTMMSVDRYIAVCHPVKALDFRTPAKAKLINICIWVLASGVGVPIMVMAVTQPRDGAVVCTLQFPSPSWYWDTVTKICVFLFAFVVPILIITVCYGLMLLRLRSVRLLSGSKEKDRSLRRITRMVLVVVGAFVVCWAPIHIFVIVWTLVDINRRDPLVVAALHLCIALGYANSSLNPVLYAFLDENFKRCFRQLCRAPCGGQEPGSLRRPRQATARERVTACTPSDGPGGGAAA", "experiment": "Compound was evaluated for its binding affinity to Opioid receptor delta 1 in rat brain"}, "[2]": {"molecular_target": "T1, Delta-type opioid receptor", "experiment": "Ability to displace [3H][D-Ser2,Leu5]enkephalin-Thr ([3H]DSLET) from Opioid receptor delta 1 in rat brain"}, "[3]": {"molecular_target": "T2, Mu-type opioid receptor (Rattus norvegicus, UniProt P33535)", "T2 sequence (P33535 whole entry)": "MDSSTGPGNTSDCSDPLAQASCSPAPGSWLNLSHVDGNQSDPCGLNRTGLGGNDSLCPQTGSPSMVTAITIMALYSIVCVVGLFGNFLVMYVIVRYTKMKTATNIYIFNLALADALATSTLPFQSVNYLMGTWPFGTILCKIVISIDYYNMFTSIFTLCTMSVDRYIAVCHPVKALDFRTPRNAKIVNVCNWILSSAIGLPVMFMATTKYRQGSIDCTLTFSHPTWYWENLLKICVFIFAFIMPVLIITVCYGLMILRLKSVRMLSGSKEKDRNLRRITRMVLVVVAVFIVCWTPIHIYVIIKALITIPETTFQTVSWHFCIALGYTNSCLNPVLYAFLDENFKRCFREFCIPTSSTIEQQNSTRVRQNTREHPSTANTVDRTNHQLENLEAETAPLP", "experiment": "Compound was evaluated for its binding affinity to mu opioid receptors in rat brain"}, "[4]": {"molecular_target": "T2, Mu-type opioid receptor", "experiment": "Ability to displace [3H][D-Ala2,MePhe4,Gly-ol5]enkephalin ([3H]DAGO) from mu opioid receptors in rat brain"}}}
{"smiles": "CN1CC[C@]23c4c5ccc(O)c4O[C@H]2[C@@H](O)C[C@H](SSc2ccc([N+](=O)[O-])cn2)C3[C@H]1C5", "note": "(stereo partly drawn)", "values": [{"measurement": "EC50", "setting": "[1]", "value": 1200, "unit": "nM"}, {"measurement": "IC50", "setting": "[2]", "value": 67.9, "unit": "nM"}, {"measurement": "EC50", "setting": "[3]", "value": 1700, "unit": "nM"}, {"measurement": "IC50", "setting": "[4]", "value": 58.1, "unit": "nM"}]}
{"smiles": "CN1CC[C@]23c4c5ccc(O)c4O[C@H]2[C@H](SSc2ccc([N+](=O)[O-])cn2)CCC3C1C5", "note": "(stereo partly drawn)", "values": [{"measurement": "EC50", "setting": "[1]", "value": 402, "unit": "nM"}, {"measurement": "IC50", "setting": "[2]", "value": 206, "unit": "nM"}, {"measurement": "EC50", "setting": "[3]", "value": 58.1, "unit": "nM"}, {"measurement": "IC50", "setting": "[4]", "value": 31.1, "unit": "nM"}]}
